# Results published in patent US12485192B2, “Cellular targeted label delivery system” (CELLIS AG, priority 2016, dated 2025).
# Key:
# metastatic 4T1 cancer = details: mouse, in vivo, iv
# From the text: After labeling, cells should be centrifuged and supernatant should be removed. This step should be repeated until no radioactivity is detected in the supernatant.
# [1] = tested on: CD45+ leukocyte cells (macrophages, monocytes, lymphocytes, granulocytes); assay: Uptake of iron binding proteins by CD45+ leukocyte cells in culture; assay type: cell-based, mouse; details: incubation 1-4 hrs, 0.1-0.2 mg/ml protein solution, standard culture conditions; FIG. 5
# Procedure: (§1) Obtained cells are incubated in ferritin solution for a time and at the concentration sufficient to ensure proper ratio of ferritin/cell for their full load and also to ensure proper contrast content to obtain proper imaging). The time and concentration may vary depending on the number of molecules encapsulated/adsorbed into the ferritin cage, status of cell activation, condition and number of their intended administration.
# For example, to ensure proper load with ferritins, cells are incubated for 1-4 hrs in ferritin solution 0.2 mg/ml in standard culture conditions. The frame of ferritin concentration may vary at least between 0.01 and 4 mg/ml as well as incubation time (5 min-6 hrs or more). Adjusting time and concentration of ferritin load to cells, the influence of ferritin and treatment conditions on cell viability should be minded.
# as §1, with “haemoglobin” for “ferritin”, “haemoglobin/cell” for “ferritin/cell”, “imaging.” for “imaging).”, “linked with” for “encapsulated/adsorbed into”, “haemoglobin molecule,” for “ferritin cage,”, “administration. […]” for “administration.”
Substance,PET signal (metastatic 4T1 cancer),uptake of iron binding protein by cells [1]
18F fluorodeoxyglucose [plain 18F-1-DG],lower PET signal,
haemoglobins: human haemoglobin prepared from fresh red cells,,very easily uptake
transferrin: human holo-transferrin purified from serum of healthy donor,,very easily uptake
